We go through five compounds from US20190231761A1, “COMPOSITIONS AND METHODS FOR TARGETING FRUCTOSE ENZYMES AND TRANSPORTERS FOR THE TREATMENT OF CANCER” (Duke University, priority 2018, published 2019).

In data set [1] the test system is LV-HCT116 cells. The data set can be described thus: intravenous injection of liver-derived HCT116 (LV-HCT116), tumors in the liver. The following applies: 5-Fluorouracil 100 mg/kg, Oxaliplatin 6 mg/kg, intraperitoneal twice a week; compared with ALDOB knockdown or fructose-restricted diet. It counts as in vivo, NOD/SCID mice. The source says:
FIG. 41A is representative IVIS luciferase in vivo images of mice with intravenous injection of liver-derived HCT116 cells with or without ALDOB knockdown. FIG. 41B are bright field and fluorescent (mCherry) images of livers of mice with intravenous injection of liver-derived HCT116 cells with or without ALDOB knockdown. FIG. 41C is a graph showing quantification of liver metastasis of mice with intravenous injection of liver-derived HCT116 cells with or without ALDOB knockdown, and show knockdown of ALDOB suppressed CRC liver lesions. FIG. 41D are representative IVIS luciferase in vivo images of mice with intravenous injection of liver-derived HCT116 with fructose diet. FIG. 41E are bright field and fluorescent (mCherry) images of livers of mice with intravenous injection of liver-derived HCT116 with fructose diet. FIG. 41F is a graph of quantification of liver metastasis of mice with intravenous injection of liver-derived HCT116 with fructose diet that show mice fed with fructose-restricted diet suppressed liver lesions. […] FIG. 41I is a graph showing quantification of liver lesions. […] Error bars denote SEM of 3 mice per group. **, p<0.01; ***, p<0.001. p-value was calculated based on one-way ANOVA. […]

In data set [2] the test system is CRC cells. Put plainly: KHK knockdown in CRC cells transplanted into mouse cecum, liver metastasis. In kind it is in vivo. To be noted: IVIS luciferase images, quantification of liver metastasis. The protocol: FIG. 42A-42B illustrates KHK knockdown suppresses liver metastasis. FIG. 42A is a Western blot showing KHK knockdown efficiency. FIG. 42B are representative IVIS luciferase in vivo images, bright field and fluorescent images of livers, and quantification of liver metastasis. Error bars denote SEM of 5 mice per group. p-values were calculated based on one-way ANOVA. ***, p<0.001.
To determine if silencing ketohexokinase (KHK) can suppress liver metastases, KHK was knocked down using shRNA nucleic acid sequence SEQ ID NO:4 (FIG. 42A) in CRC cells and the cells were transplanted into the mouse cecum using the methods described in Example 6 with respect to ALDOB knockdown.

Data set [3] has as its system HCT116 cells. Put plainly: cecum injection model, CRC liver metastasis, HCT116 cells with ALDOB knockdown. In kind it is in vivo, NOD/SCID mice. To be noted: cecum-injected HCT116 cells with ALDOB knockdown; control vectors 5 out of 5 mice. The protocol: (§1) Tumor-bearing mice were treated with 5-Fluorouracil (Sigma, St. Louis, Mo.) at a dose of 100 mg/kg, Oxaliplatin (Sigma, St. Louis, Mo.) at a dose of 6 mg/kg, 2-deoxyglucose (Sigma, St. Louis, Mo.) at a dose of 500 mg/kg or normal saline as vehicle control through intraperitoneal route twice a week. 2×10^6 cells carrying a luciferase/mCherry or luciferase/GFP vector were injected into the mice for cecum injection model and intrahepatic injection model. 5×10^5 cells were injected for intravenous injection. Luciferase signal was tracked in vivo using the IVIS luciferase imaging system 200 (Xenogen) for tumor development. Liver metastases were evaluated based on mCherry signals by an OV100 microscope (Olympus) after scarifying the mice.
(§2) To assess the contribution of ALDOB to fructose metabolism, ALDOB was knocked down in CRC cells using two shRNAs and validated the knockdown efficiencies by Western blot (FIG. 23). ALDOB lentiviral shRNA constructs were purchased from Sigma Mission shRNA dataset. The lentiviral vectors were co-transfected with helper plasmids into 293T cells. The lentiviral vectors were transfected into 293T cells. The viral supernatant was collected 48 hours after transfection and was used to infect CRC cells. […]

The test system of data set [4] is CRC119 cells. Put plainly: cecum injection model, CRC liver metastasis, CRC119 cells with ALDOB knockdown. In kind it is in vivo, NOD/SCID mice. To be noted: cecum-injected CRC119 cells with ALDOB knockdown; control vectors 5 out of 5 mice. The protocol:
as §1, §2

Data set [5] has as its system CRC57 cells. The data set can be described thus: cecum injection model, CRC liver metastasis, CRC57 cells with ALDOB knockdown. In kind it is in vivo, NOD/SCID mice. To be noted: cecum-injected CRC57 cells with ALDOB knockdown; control vectors 5 out of 5 mice. The protocol:
as §1, §2

For `O=c1[nH]cc(F)c(=O)[nH]1` [5-Fluorouracil], the “benefit in terms of tumor suppression or survival” value in data set [1] was “less benefit”.

Take `O=C1[O][Pt]2([NH][C@@H]3CCCC[C@H]3[NH]2)[O]C1=O` [Oxaliplatin]: in data set [1], the “benefit in terms of tumor suppression or survival” value is “less benefit”.

As for “SEQ ID NO:4: shRNA against human fructokinase (KHK) (CCGGCCTAAGGAGGACTCGGAGATACTCGAGTATCTCCGAGTCCTCCTTAGGTTTTTG)”, in data set [2], the “metastatic CRC growth in the liver” value is “significantly suppressed”.

On to “shRNA1: shRNA against human ALDOB, Sigma Mission lentiviral construct (CCGGCTCAGAAATTGCCCAGAGCATCTCGAGATGCTCTGGGCAATTTCTGAGTTTTTG)”, for which the “mice that developed detectable liver metastases” value in data set [3], in data set [4] and in data set [5] was 2 out of 5 mice in each case.

In the case of “shRNA2: shRNA against human ALDOB, Sigma Mission lentiviral construct (CCGGGTGGGAATCAAGTTAGACCAACTCGAGTTGGTCTAACTTGATTCCCACTTTTTG)”, the results for the “mice that developed detectable liver metastases” value in data set [3], in data set [4] and in data set [5] were 2 out of 5 mice, 1 out of 5 mice and 2 out of 5 mice, respectively.
